One data set deals with db/db mice. Briefly: In vivo Evaluation in db/db mice (plasma glucose). More on the design: species or system mouse. The settings on record: 5 mg/kg b.i.d. oral gavage, fourteen days.
The target in a further data set is T1, hPPARgamma (Homo sapiens, UniProt P37231).
T1 construct: 10x-histidine tag (N); made in house; host or cells: E. coli
T1 sequence (P37231 195-475 isoform P37231-2): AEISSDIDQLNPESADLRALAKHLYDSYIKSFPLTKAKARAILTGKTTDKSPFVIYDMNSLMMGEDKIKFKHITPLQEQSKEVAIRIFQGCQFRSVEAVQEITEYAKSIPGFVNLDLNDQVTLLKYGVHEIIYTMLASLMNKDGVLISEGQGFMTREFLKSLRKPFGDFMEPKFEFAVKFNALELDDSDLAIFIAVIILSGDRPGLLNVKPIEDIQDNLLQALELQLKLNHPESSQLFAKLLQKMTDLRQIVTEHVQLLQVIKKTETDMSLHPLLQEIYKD
Briefly: hPPARgamma Ligand Binding Assay.

Another data set has as its system PPARg. Briefly: PPARgamma Transient Cotransfection Assay. Type of data set: cell-based.
Where [1] appears, read: PPARg Ki, competition with [3H]-BRL 49,653, room temperature 2 hrs.
[2] abbreviates: CAT reporter, read-out: PPARg EC50.
Where [3] appears, read: read-out: PPARg EC50, CAT reporter.

Structures can show the parent of a compound that is named as a salt. Where two headings read alike, the source gives them in different places.

Experimental for db/db mice: In vivo Evaluation: Experiments were performed on db/db mice (n=40-48), approximately 60 day old, divided into either vehicle or treatment groups. From each group 8-12 animals were placed in Nalgene metabolic cages, 2 per cage. The remaining animals are housed in standard rack cages; 3-4 per cage. Test compounds were dissolved in an appropriate vehicle. Animals were administered either the vehicle or the compound (dose=5 mg/kg) delivered at 5 ml/kg, b.i.d., via oral gavage for fourteen days. Daily measurements were made of mice housed in metabolic cages to determine consumption of food and water, urine output and urinary glucose excretion and changes in body weight. Animals housed in rack cages were weighed approximately every four days to monitor changes in body weight. An equal number of animals from each group were sampled on days 0, 4, 7 and 14. Mice were anesthetized with isolflurane, blood samples were obtained by cardiac puncture and analyzed to determine plasma levels of glucose, insulin, total cholesterol, triglycerides and non-esterified free fatty acids (NEFA's).
Experimental for hPPARgamma: 2. hPPARgamma Ligand Binding Assay: The PPAR-gamma ligand binding domain (amino acids 195-475) was expressed with an N-terminal 10×-histidinetag in E. coli cells. The cells were lysed and receptor was purified by means of the epitope tag. The stock solution of protein was diluted to 200 nM in assay buffer (50 mM Tris, 50 mM KCl, pH 8 20 mM CHAPS, 2 mM EDTA 10 mM DTT (Fresh)) just before use.
Test compounds were prepared as 6 mM stock solutions in DMSO. […] The right-most column of wells was used for controls. […] Plates were incubated at room temperature for 2 hrs, and then cooled on ice for 30 minutes. 50 uL samples from each well of a single test plate were simultaneously loaded onto an equilibrated AGTC 96 well gel filtration block (Advanced Genetics Technology Corp.) using a Zymak Rapidplate automated pipettor. The block was placed on top of a clean microtiter plate and centrifuged @1,100×g for 4 min. 200 uL of scintillation fluid was added to each well, the plates were sealed and allowed to equilibrate for at least 4 hours before counting in a Wallac 1250 Microbeta counter.
Ki's were determined from a nonlinear least squares fit of the data to a simple competitive binding model.

Regarding `CN(CCOc1ccc(CC(Nc2ccccc2C(=O)c2ccccc2)C(=O)O)cc1)c1nc2ccccc2o1` (centres unmarked) [Example 16, 3-{4-[2-(benzoxazol-2-yl-methyl-amino)-ethoxy]-phenyl}-2-(2-benzoyl-phenylamino)-propionic acid], the “% lowering of plasma glucose” value in the data set on db/db mice stood at 63%. On hPPARgamma (setting [1]), the affinity corresponds to a Ki of 20 nM. Moreover, the EC50 in the data set with PPARg (setting [2]) was 1 nM.

For `Cc1oc(-c2ccccc2)nc1CCOc1ccc(CC(Nc2ccccc2C(=O)c2cccc(CN(C)C)c2)C(=O)O)cc1` (centres unmarked) [Example 87, 2-[2-(3-dimethylaminomethyl-benzoyl)-phenylamino]-3-{4-[2-(5-methyl-2-phenyl-oxazol-4-yl)-ethoxy]-phenyl}-propionic acid hydrochloride], the Ki on hPPARgamma (competition with [3H]-BRL 49,653, room temperature 2 hrs; read-out: PPARg Ki) stood at 1160 nM. The EC50 in the data set on PPARg (setting [2]) turned out to be 465 nM.

Regarding `CN(CCOc1ccc(C[C@H](Nc2ccccc2C(=O)c2ccccc2)C(=O)O)cc1)c1ccccn1` [Example 12, 2(S)-(2-benzoyl-phenylamino)-3-{4-[2-(methyl-pyridin-2-yl-amino)-ethoxy]-phenyl}-propionic acid], the “% lowering of plasma glucose” value with db/db mice was found to be 58%. The EC50 in the data set on PPARg (setting [3]) was 5 nM.

On hPPARgamma (setting [1]), `Cc1oc(-c2ccccc2)nc1CCOc1ccc(C[C@H](Nc2ccccc2C(=O)c2cccnc2)C(=O)O)cc1` [Example 58, 3-{4-[2-(5-Methyl-2-phenyl-oxazol-4-yl)-ethoxy]-phenyl}-2(S)-[2-(pyridine-3-carbonyl)-phenylamino]-propionic acid] gave a Ki of 30 nM. Also, the EC50 in the data set with PPARg (setting [2]) is 1 nM.

Compound `Cc1oc(-c2ccccc2)nc1CCOc1ccc(C[C@H](Nc2ccccc2C(=O)c2cc[n+]([O-])cc2)C(=O)O)cc1` [Example 57, 3-{4-[2-(5-methyl-2-phenyl-oxazol-4-yl)-ethoxy]-phenyl}-2(S)-[2-(pyridineN-oxide-4-carbonyl)-phenylamino]-propionic acid] displayed a Ki on hPPARgamma (setting [1]) of 1240 nM. Also, in the data set on PPARg (setting [2]), the EC50 was 150 nM.

The compound `Cc1oc(-c2ccccc2)nc1CCOc1ccc(CC(Nc2ccccc2C(=O)c2cccc(OCC(N)=O)c2)C(=O)O)cc1` (centres unmarked) [Example 98, 2-[2-(3-Carbanoylmethoxy-benzoyl)-phenylamino]-3-{4-[2-(5-methyl-2-phenyl-oxazol-4-yl)-ethoxy]-phenyl}-propionic acid] yielded a Ki at hPPARgamma (setting [1]) of 10 nM. Also, in the data set on PPARg (setting [2]), the EC50 was found to be 375 nM.

`Cc1oc(-c2ccccc2)nc1CCOc1ccc(C[C@H](Nc2ccccc2C(=O)c2ccccc2)C(=O)O)cc1` [Example 29, 2(S)-(2-Benzoyl-phenylamino)-3-{4-[2-(5-methyl-2-phenyl-oxazol-4-yl)ethoxy]-phenyl}-propionic acid]: the “% lowering of plasma glucose” value in the data set with db/db mice stood at 70%. The EC50 in the data set with PPARg (setting [3]) worked out at 0.2 nM.

For `COC(=O)C(Cc1ccc(OCc2ccccc2)cc1)Nc1ccccc1C(=O)OCc1ccccc1` (centres unmarked) [Example 5], the Ki at hPPARgamma (setting [1]) is more than 3000 nM. In the data set on PPARg (CAT reporter), the “PPARg Fold. Act.” value came out at 10. The EC50 in the data set on PPARg (setting [2]) turned out to be 9000 nM.

`CC(=CC(=O)c1ccccc1)N[C@@H](Cc1ccc(OCc2ccccc2)cc1)C(=O)O` [Example 1, 3-(4-Benzyloxy-phenyl)-2(S)-(1-methyl-3-oxo-3-phenyl-propenylamino)-propionic acid dicyclohexylamine salt] showed a Ki at hPPARgamma (setting [1]) of 55 nM. In addition, in the data set with PPARg (CAT reporter), the “PPARg Fold. Act.” value is given as 26. The EC50 in the data set with PPARg (setting [2]) is 60 nM.

Turning to `Cc1oc(-c2ccccc2)nc1CCOc1ccc(CC(Nc2ccccc2C(=O)c2cccc(NS(C)(=O)=O)c2)C(=O)O)cc1` (centres unmarked) [Example 95, 2-[2-(3-methanesulfonylamino-benzoyl)-phenylamino]-3-{4-[2-(5-methyl-2-phenyl-oxazol-4-yl)-ethoxy]-phenyl}-propionic acid], on hPPARgamma (setting [1]), the Ki is 380 nM. In addition, in the data set on PPARg (setting [2]), the EC50 turned out to be 700 nM.

On to `Cc1oc(-c2ccccc2)nc1CCOc1ccc(CC(Nc2ccccc2C(=O)c2cccc(O)c2)C(=O)O)cc1` (centres unmarked) [Example 97, 2-[2-(3-hydroxy-benzoyl)-phenylamino]-3-{4-[2-(5-methyl-2-phenyl-oxazol-4-yl)-ethoxy]-phenyl}-propionic acid], for which, on hPPARgamma (setting [1]), the Ki is 5 nM. The EC50 in the data set with PPARg (setting [2]) stood at 20 nM.

Consider `O=C(c1ccccc1)c1ccsc1NC(Cc1ccc(OCc2ccccc2)cc1)C(=O)O` (centres unmarked) [Example 8, 2-(3-Benzoyl-thiophen-2-yl-amino)-3-(4-benzyloxy-phenyl)-propionic acid], for which, at hPPARgamma (setting [1]), the Ki was 21 nM. The EC50 with PPARg (setting [2]) is 720 nM.

In the case of `Cc1ccccc1C(=O)c1ccccc1NC(Cc1ccc(OCCN(C)c2nc3ccccc3o2)cc1)C(=O)O` (centres unmarked) [Example 112, 3-{4-[2-(Benzoxazol-2-yl-methylamino)-ethoxy]-phenyl}-2-(2-(2-methyl-benzoyl)-phenylamino)-propionic acid], the Ki at hPPARgamma (setting [1]) is 130 nM. For the same compound, in the data set with PPARg (setting [2]), the EC50 amounted to 10 nM.

In turn, `O=C(c1ccccc1)c1ccccc1NC(Cc1ccc(OCCc2cccnc2)cc1)C(=O)O` (centres unmarked) [Example 123, 2-(2-Benzoyl-phenylamino)-3-[4-(2-pyridin-3-yl-ethoxy]-phenyl]-propionic acid] gave a Ki on hPPARgamma (setting [1]) of 280 nM. The 50% effective concentration (EC50) with PPARg (setting [2]) was determined as 620 nM.

Regarding `COC(=O)c1ccccc1N[C@@H](Cc1ccc(OCCc2ccc(OC(F)(F)F)cc2)cc1)C(=O)O` [Example 107, 2(S)-(1-carboxy-2-{4-[2-(4-trifluoromethoxy-phenyl)-ethoxy]-phenyl}-ethylamino)-benzoic acid methyl ester], the Ki at hPPARgamma (setting [1]) came out at 40 nM. Further, the EC50 in the data set with PPARg (setting [2]) came to 190 nM.

On hPPARgamma (setting [1]), `CCOC(=O)C(Cc1ccc(OCCN(C)c2ccccn2)cc1)Nc1ccccc1C(=O)c1ccccc1` (centres unmarked) [Example 13, 2-(2-Benzoyl-phenylamino)-3-{4-[2-(methyl-pyridin-2-yl-amino)-ethoxy]-phenyl}-propionic acid ethyl ester] showed a Ki of 1300 nM. In addition, the EC50 in the data set with PPARg (setting [2]) is 60 nM.

In turn, `Cc1nnsc1-c1nc(CCOc2ccc(C[C@H](Nc3ccccc3C(=O)c3ccccc3)C(=O)O)cc2)c(C)s1` [Example 41, 2(S)-(2-benzoyl-phenylamino)-3-(4-{2-[5-methyl-2-(4-methyl[1,2,3]thiadiazol-5-yl)-thiazol-4-yl]ethoxy}-phenyl)-propionic acid] displayed a Ki at hPPARgamma (setting [1]) of 70 nM. In the data set on PPARg (setting [2]), the EC50 stood at 5 nM.

`COC(=O)[C@H](Cc1ccc(OCc2ccccc2)cc1)NC(C)=CC(=O)c1ccccc1` [Example 2, 3-(4-Benzyloxy-phenyl)-2(S)-(1-methyl-3-oxo-3-phenyl-propenylamino)-propionic acid methyl ester]: the affinity at hPPARgamma (setting [1]), expressed as Ki, was 1000 nM. The “PPARg Fold. Act.” value with PPARg (CAT reporter) worked out at 23. In the data set with PPARg (setting [2]), the EC50 amounted to 100 nM.

With `CN(CCOc1ccc(CC(Nc2ccc(Cl)cc2C(=O)c2ccccc2)C(=O)O)cc1)c1nc2ccccc2o1` (centres unmarked) [Example 20, 3-{4-[2-(benzoxazol-2-yl-methyl-amino)-ethoxy]-phenyl}-2-(2-benzoyl-4-chloro-phenylamino)-propionic acid], at hPPARgamma (setting [1]), the affinity corresponds to a Ki of 180 nM. Also, the EC50 in the data set with PPARg (setting [2]) was 120 nM.

`O=C(c1ccccc1)c1ccccc1NC(Cc1ccc(OC2CCN(c3nc4ccccc4o3)C2)cc1)C(=O)O` (centres unmarked) [Example 55, 3-[4-(1-Benzoxazol-2-yl-pyrrolidin-3-yloxy)-phenyl]-2-(2-benzoyl-phenylamino)-propionic acid] had a Ki at hPPARgamma (setting [1]) of 1400 nM. Moreover, the EC50 in the data set with PPARg (setting [2]) stood at 460 nM.

On to `COC(=O)c1ccccc1N[C@@H](Cc1ccc(OCCSc2ccc(Cl)cn2)cc1)C(=O)O` [Example 70], for which the Ki on hPPARgamma (read-out: PPARg Ki; competition with [3H]-BRL 49,653, room temperature 2 hrs) was 250 nM. Besides, the EC50 in the data set on PPARg (setting [2]) amounted to 200 nM.

On to `O=C(c1ccccc1)c1ccccc1N[C@@H](Cc1ccc(OC[C@@H]2CCCN2c2ccccn2)cc1)C(=O)O` [Example 61, 2S-(2-benzoyl-phenylamino)-3-[4-(1-pyridin-2-yl-pyrrolidin-2S-yl-methoxy)-phenyl]-propionic acid], for which the Ki on hPPARgamma (setting [1]) is 10 nM. The EC50 in the data set on PPARg (setting [2]) turned out to be 15 nM.

Take `COC(=O)c1ccccc1N[C@@H](Cc1ccc(OCCc2ccc(Cl)cc2)cc1)C(=O)O` [Example 106, 2(S)-(1-carboxy-2-{4-[2-(4-chloro-phenyl)-ethoxy]-phenyl}-ethylamino)-benzoic acid methyl ester]: the inhibition constant (Ki) on hPPARgamma (setting [1]) turned out to be 140 nM. Besides, the EC50 with PPARg (setting [2]) is 300 nM.

Compound `CC(=CC(=O)c1ccccc1)NC(Cc1ccc(OCCN(C)c2ccccn2)cc1)C(=O)O` (centres unmarked) [Example 14, 2-(1-Methyl-oxo-3-phenyl-propenylamino)-3{4-[2-(methyl-pyridin-2-yl-amino)-ethoxy]-phenyl}-propionic acid dicyclohexylamine salt] gave a Ki on hPPARgamma (setting [1]) of 80 nM. In the data set on PPARg (CAT reporter), the “PPARg Fold. Act.” value is given as 18. In addition, the EC50 with PPARg (setting [2]) was found to be 1 nM.

At hPPARgamma (setting [1]), `Cc1oc(-c2ccccc2)nc1CCOc1ccc(CC(Nc2ccccc2C(=O)c2cccc(N)c2)C(=O)O)cc1` (centres unmarked) [Example 94, 2-[2-(3-amino-benzoyl)-phenylamino]-3-{4-[2-(5-methyl-2-phenyl-oxazol-4-yl)-ethoxy]-phenyl}-propionic acid] returned a Ki of 40 nM. Further, in the data set with PPARg (setting [2]), the EC50 is 10 nM.

For `CN(CCOc1ccc(CC(Nc2ccsc2C(=O)c2ccccc2)C(=O)O)cc1)c1nc2ccccc2o1` (centres unmarked) [Example 25], the Ki at hPPARgamma (setting [1]) turned out to be 70 nM. Moreover, the EC50 in the data set on PPARg (setting [2]) came out at 1 nM.

On hPPARgamma (setting [1]), `CN(CCOc1ccc(CC(Nc2cc(F)ccc2C(=O)C2CCCCC2)C(=O)O)cc1)c1nc2ccccc2o1` (centres unmarked) [Example 50, 3-{4-[2-(Benzoxazol-2-yl-methyl-amino)-ethoxy]-phenyl}-2-(2-cyclohexanecarbonyl-5-fluoro-phenylamino)-propionic acid] yielded a Ki of 390 nM. Moreover, the EC50 with PPARg (setting [2]) is 50 nM.

Broadly, the Ki is a dissociation constant, usually derived from enzyme kinetics or from competition with a known ligand. The term EC50 denotes the concentration at which the effect is half-maximal.

Values taken from patent US6294580A, “Substituted 4-hydroxy-phenylalcanoic acid derivatives with agonist activity to PPAR-gamma” (Glaxo Wellcome Inc., priority 1996, dated 2001).
